Results reported in US20040023994A1 (priority 2002, published 2004).
Read-outs that look alike come from different tables or passages of the source. Marks after values point to notes of the source that are not given here.

How the values were obtained:
A-498 cells = assay: MTT cytotoxicity assay; type: cell-based, human
Procedure: (§1) Preliminary studies examining the in vitro cytotoxicity of cis-AVTP and trans-AVTG as compared to the parent drugs, were carried out using the 3-[4,5-dimethylthiazol-2-yl]-2,5-diphenyl tetrazolium bromide (MTT) cytotoxicity assay.

ACHN cells = assay: MTT cytotoxicity assay; type: cell-based, human
Procedure: as §1

[1] = tested on: all the cell lines included in the screen; assay: cells
Procedure: cis-AVTP and trans-AVTG were tested in National Cancer Institute's (NCI) 60 cell lines derived from leukemia, melanoma, lung, kidney cancers. Most chemotherapeutic agents currently nd 6-TG, have been tested in this screen and a database he National Institutes of Health. The NCI assigned s-AVTP, and number NSC-722289 to trans-AVTG. tocol used for the cytotoxicity assessment in the NCI e from the National Institutes of Health. Briefly, tumor ma, lung, colon, brain, ovary, breast, prostate, and um containing 5% fetal bovine serum and 2 mM L-glutamine re plated in a 100 μL volume into 96 well microtiter 37° C. in humidified atmosphere supplemented with 5% ach cell line were fixed with trichloroacetic acid for f drug addition (Tz). The drugs, as 400-fold concentrated uted to twice the final maximum test concentration with entamicin. Additional four 10-fold dilutions were made us control. Aliquots (100 μl) of the drug solutions were 100 μl of medium, resulting in the required final drug the plates were incubated at 37° C. in humidified for additional 48 h. The assay was terminated by the w/v) trichloroacetic acid for adherent and suspension minutes at 4° C. The supernatant was discarded, the and air dried. A 100 μl aliquot of 0.4% (w/v) sulforhodamine B (SRB) solution in 1% acetic acid was added to each well, and the plates incubated for 10 minutes at room temperature. After staining, unbound dye was removed by washing five times with 1% acetic acid and the plates air dried. Bound stain was solubilized with 10 mM trizma base, and the absorbance read on a plate reader at a wavelength of 515 nm.
By using time zero (Tz), control growth (C), and test growth in the presence of drug at the five concentration levels (Ti), the percentage growth was calculated at each of the drug concentration levels. Percentage growth inhibition was calculated as:
[(Ti−Tz)/(C−Tz)]×100 for concentrations for which Ti>/=Tz
[(Ti−Tz)/Tz]×100 for concentrations for which Ti<Tz.
Three dose response parameters were calculated for each experimental agent. […] The TGI, the drug concentration resulting in total growth inhibition was calculated from Ti=Tz. The LC50 (the concentration of drug resulting in a 50% reduction in the measured protein at the end of the drug treatment as compared to that at the beginning) indicating a net loss of cells following treatment was calculated from [(Ti−Tz)/Tz]×100=−50. Values were calculated for each of these three parameters if the level of activity is reached; however, if the effect was not reached or was exceeded, the value for that parameter is expressed as greater or less than the maximum or minimum concentration tested.

Breast cell lines [2] = tested on: Breast cell lines
Prostate cell lines [3] = tested on: Prostate cell lines
Colon cell lines [4] = tested on: Colon cell lines
Renal cell lines [5] = tested on: Renal cell lines
Melanoma cell lines [6] = tested on: Melanoma cell lines
NSCL cell lines [7] = tested on: NSCL cell lines
CNS cell lines [8] = tested on: CNS cell lines
Leukemia cell lines [9] = tested on: Leukemia cell lines
IGR-OV1 = conditions: IGR-OV1, Ovarian, NCI database, cited from earlier work
OVCAR-8 = conditions: OVCAR-8, Ovarian, NCI database, cited from earlier work
TK-10 = conditions: TK-10, Renal, NCI database, cited from earlier work
HOP-92 = conditions: HOP-92, Non-Small Cell Lung, NCI database, cited from earlier work
Breast cell lines [10] = assay: cells; conditions: for GI50: read-out: median GI50; for CC50: read-out: median LC50
Prostate cell lines [11] = assay: cells; conditions: for GI50: read-out: median GI50; for CC50: read-out: median LC50
Colon cell lines [12] = assay: cells; conditions: for GI50: read-out: median GI50; for CC50: read-out: median LC50
Renal cell lines [13] = assay: cells; conditions: for GI50: read-out: median GI50; for CC50: read-out: median LC50
Melanoma cell lines [14] = assay: cells; conditions: for GI50: read-out: median GI50; for CC50: read-out: median LC50
NSCL cell lines [15] = assay: cells; conditions: for GI50: read-out: median GI50; for CC50: read-out: median LC50
CNS cell lines [16] = assay: cells; conditions: Homo sapiens; for GI50: read-out: median GI50; for CC50: read-out: median LC50
Leukemia cell lines [17] = assay: cells; conditions: for CC50: read-out: median LC50
Ovarian cell lines = assay: NCI anticancer screen, by tissue type; conditions: for GI50: read-out: median GI50; for CC50: read-out: median LC50
[18] = Homo sapiens, A498, A-498, 72 h incubation, MTT
[19] = Homo sapiens, A498, A-498, 96 h drug incubation
[20] = Homo sapiens, 48 h drug incubation
[21] = Homo sapiens, 72 h incubation, MTT
[22] = Homo sapiens, 96 h drug incubation
[23] = all cell lines of the NCI screen
[24] = read-out: LC50 (the source's name)

Structure (SMILES): Sc1ncnc2nc[nH]c12 [6-MP, 6-mercaptopurine]
- IC50 (A-498 cells; [18]): 60.6 ± 25.5 µM
- IC50 (A-498 cells; [19]): 14.9 ± 6.7 µM
- IC50 (ACHN cells; [20]): 44.8 ± 5 µM
- IC50 (ACHN cells; [21]): 6.3 ± 1.9 µM
- IC50 (ACHN cells; [22]): 0.9 ± 0.3 µM
- median TGI [1, 23]: >100 µM
- GI50 ([1]; read-out: median GI50): 3.97 µM
- CC50 ([1]; read-out: median LC50): > 100 µM
- median TGI (Breast cell lines [2]): >100 µM
- median TGI (Prostate cell lines [3]): >100 µM
- median TGI (Colon cell lines [4]): >100 µM
- median TGI (Renal cell lines [5]): >100 µM
- median TGI (Melanoma cell lines [6]): >100 µM
- median TGI (NSCL cell lines [7]): >100 µM
- median TGI (CNS cell lines [8]): >100 µM
- median TGI (Leukemia cell lines [9]; Leukemia): >100 µM
- GI50 (IGR-OV1): 8.59 µM
- TGI (IGR-OV1): >100 µM
- CC50 (IGR-OV1; [24]): > 100 µM
- GI50 (OVCAR-8): 2.44 µM
- TGI (OVCAR-8): >100 µM
- CC50 (OVCAR-8; [24]): > 100 µM
- GI50 (TK-10): 1.83 µM
- TGI (TK-10): >100 µM
- CC50 (TK-10; [24]): > 100 µM
- GI50 (HOP-92): 2.6 µM
- TGI (HOP-92): >100 µM
- CC50 (HOP-92; [24]): > 100 µM
- GI50 (Breast cell lines [10]): 9.42 µM
- CC50 (Breast cell lines [10]): > 100 µM
- GI50 (Prostate cell lines [11]): 2.77 µM
- CC50 (Prostate cell lines [11]): > 100 µM
- GI50 (Colon cell lines [12]): 4.53 µM
- CC50 (Colon cell lines [12]): > 100 µM
- GI50 (Renal cell lines [13]): 4.33 µM
- CC50 (Renal cell lines [13]): > 100 µM
- GI50 (Melanoma cell lines [14]): 5.04 µM
- CC50 (Melanoma cell lines [14]): > 100 µM
- GI50 (NSCL cell lines [15]): 3.74 µM
- CC50 (NSCL cell lines [15]): > 100 µM
- GI50 (CNS cell lines [16]): 6.64 µM
- CC50 (CNS cell lines [16]): > 100 µM
- GI50 (Leukemia cell lines [17]; read-out: median GI50): 1.39 µM
- CC50 (Leukemia cell lines [17]): > 100 µM
- median TGI (Ovarian cell lines; Ovarian): >100 µM
- GI50 (Ovarian cell lines): 4.77 µM
- CC50 (Ovarian cell lines): > 100 µM

Structure (SMILES): CC(=O)C=CSc1ncnc2nc[nH]c12 [cis-AVTP, 6-(2-acetylvinylthio) purine]
- IC50 (A-498 cells; Homo sapiens, A498, A-498, 24 h drug incubation): 107 ± 14.7 µM
- IC50 (A-498 cells; Homo sapiens, A498, A-498, 48 h drug incubation): 24.6 ± 4 µM
- IC50 (A-498 cells; [18]): 8 ± 1.2 µM
- IC50 (A-498 cells; [19]): 5.5 ± 0.9 µM
- IC50 (ACHN cells; Homo sapiens, 24 h drug incubation): 58.2 ± 1.7 µM
- IC50 (ACHN cells; [20]): 8.7 ± 0.9 µM
- IC50 (ACHN cells; [21]): 3.7 ± 0.7 µM
- IC50 (ACHN cells; [22]): 3.5 ± 0.4 µM
- GI50 [1]: < 2 µM
- median TGI [1, 23]: 4.56 µM
- CC50 ([1]; read-out: LC50): < 15 µM
- GI50 ([1]; read-out: median GI50): 0.6 µM
- CC50 ([1]; read-out: median LC50): 38.6 µM
- median TGI (Breast cell lines [2]): 3.98 µM
- median TGI (Prostate cell lines [3]): 7.09 µM
- median TGI (Colon cell lines [4]): 4.42 µM
- median TGI (Renal cell lines [5]): 2.67 µM
- median TGI (Melanoma cell lines [6]): 3.24 µM
- median TGI (NSCL cell lines [7]): 12.2 µM
- median TGI (CNS cell lines [8]): 10.7 µM
- median TGI (Leukemia cell lines [9]; Leukemia): 52.5^# μM
- TGI (Leukemia cell lines [9]; leukemia cell lines CCRF-CEM, HL-60(TB), and RPMI-8226): < 5 µM
- GI50 (Breast cell lines [10]): 0.55 µM
- CC50 (Breast cell lines [10]): > 100 µM
- GI50 (Prostate cell lines [11]): 1.69 µM
- CC50 (Prostate cell lines [11]): 54.8 µM
- GI50 (Colon cell lines [12]): 1.13 µM
- CC50 (Colon cell lines [12]): 25.3 µM
- GI50 (Renal cell lines [13]): 0.49 µM
- CC50 (Renal cell lines [13]): 10.7 µM
- GI50 (Melanoma cell lines [14]): 0.48 µM
- CC50 (Melanoma cell lines [14]): 9.58 µM
- GI50 (NSCL cell lines [15]): 1.59 µM
- CC50 (NSCL cell lines [15]): 53.7 µM
- GI50 (CNS cell lines [16]): 1.69 µM
- CC50 (CNS cell lines [16]): 52.7 µM
- GI50 (Leukemia cell lines [17]): < 0.5 µM
- GI50 (Leukemia cell lines [17]; read-out: median GI50): 0.19 µM
- CC50 (Leukemia cell lines [17]): > 100 µM
- median TGI (Ovarian cell lines; Ovarian): 4.55 µM
- GI50 (Ovarian cell lines): 0.91 µM
- CC50 (Ovarian cell lines): 27.7 µM

Structure (SMILES): CC(=O)C=CSc1nc(N)nc2nc[nH]c12 [trans-AVTG, 6-(2-acetylvinylthio) guanine]
- IC50 (A-498 cells; A-498, 72 h incubation, MTT): 9.7 ± 2 µM
- IC50 (ACHN cells; 72 h incubation, MTT): 4.1 ± 0.4 µM
- median TGI [1, 23]: 12.9 µM
- GI50 ([1]; read-out: median GI50, all cell lines of the NCI screen): 0.98 µM
- CC50 ([1]; read-out: median LC50, all cell lines of the NCI screen): 76.2 µM
- median TGI (Breast cell lines [2]): 11.6 µM
- GI50 (Breast cell lines [2]; read-out: median GI50): 0.97 µM
- CC50 (Breast cell lines [2]; read-out: median LC50): 88.1 µM
- median TGI (Prostate cell lines [3]): 19.7 µM
- GI50 (Prostate cell lines [3]; read-out: median GI50): 3.96 µM
- CC50 (Prostate cell lines [3]; read-out: median LC50): 62.5 µM
- median TGI (Colon cell lines [4]): 9.50 µM
- GI50 (Colon cell lines [4]; read-out: median GI50): 1.43 µM
- CC50 (Colon cell lines [4]; read-out: median LC50): 62.6 µM
- median TGI (Renal cell lines [5]): 14.3 µM
- GI50 (Renal cell lines [5]; read-out: median GI50): 0.98 µM
- CC50 (Renal cell lines [5]; read-out: median LC50): 52.8 µM
- median TGI (Melanoma cell lines [6]): 10.1 µM
- GI50 (Melanoma cell lines [6]; read-out: median GI50): 0.73 µM
- CC50 (Melanoma cell lines [6]; read-out: median LC50): 53.1 µM
- median TGI (NSCL cell lines [7]): 19.4 µM
- GI50 (NSCL cell lines [7]; read-out: median GI50): 2.52 µM
- CC50 (NSCL cell lines [7]; read-out: median LC50): 61.5 µM
- median TGI (CNS cell lines [8]): 32.4 µM
- GI50 (CNS cell lines [8]; read-out: median GI50): 3.68 µM
- CC50 (CNS cell lines [8]; read-out: median LC50): > 100 µM
- median TGI (Leukemia cell lines [9]; Leukemia): 13.4 µM
- GI50 (Leukemia cell lines [9]; read-out: median GI50, Leukemia): 0.37 µM
- CC50 (Leukemia cell lines [9]; read-out: median LC50, Leukemia): > 100 µM
- median TGI (Ovarian cell lines; Ovarian): 3.41 µM
- GI50 (Ovarian cell lines; Ovarian): 0.39 µM
- CC50 (Ovarian cell lines; Ovarian): 51.4 µM
